Reference: ChEMBL document CHEMBL1201862, “PubChem BioAssay data set” (2004)
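In this assay, cells in 96-well plates receive the compound at five concentrations for 48 hours. Endpoints are linearly interpolated between the surrounding concentrations. GI50 = concentration required for 50% inhibition of growth.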 Active and inactive are the calls of the source. Rule as the data show it: active = GI50 up to about 1.1 µM and inactive = higher.

How the values were obtained:
Assay in all cases: NCI-60 cell line screen, 48 h
SF-268 = tested on: SF-268
UO-31 = tested on: UO-31
SK-OV-3 = tested on: SK-OV-3
Malme-3M = tested on: Malme-3M
NCI-H460 = tested on: NCI-H460
UACC-257 = tested on: UACC-257
KM12 = tested on: KM12
SW-620 = tested on: SW-620
EKVX = tested on: EKVX
OVCAR-4 = tested on: OVCAR-4
SN12C = tested on: SN12C
A498 = tested on: A498
CCRF-CEM = tested on: CCRF-CEM
NCI-H522 = tested on: NCI-H522
LOX IMVI = tested on: LOX IMVI
M14 = tested on: M14
COLO 205 = tested on: COLO 205
SK-MEL-5 = tested on: SK-MEL-5

| SMILES | GI50 (SF-268) | GI50 (UO-31) | GI50 (SK-OV-3) | GI50 (Malme-3M) | GI50 (NCI-H460) | GI50 (UACC-257) | GI50 (KM12) | GI50 (SW-620) | GI50 (EKVX) | GI50 (OVCAR-4) | GI50 (SN12C) | GI50 (A498) | GI50 (CCRF-CEM) | GI50 (NCI-H522) | GI50 (LOX IMVI) | GI50 (M14) | GI50 (COLO 205) | GI50 (SK-MEL-5) |
| --- | --- | --- | --- | --- | --- | --- | --- | --- | --- | --- | --- | --- | --- | --- | --- | --- | --- | --- |
| CC1CCCc2c(CC3CC(=O)NC(=O)C3)n[nH]c21 (centres undefined) | > 100 µM (inactive) | > 100 µM (inactive) | > 100 µM (inactive) | > 100 µM (inactive) | > 100 µM (inactive) | > 100 µM (inactive) | > 100 µM (inactive) | > 100 µM (inactive) | > 100 µM (inactive) | > 100 µM (inactive) | > 100 µM (inactive) | > 100 µM (inactive) | > 100 µM (inactive) | > 100 µM (inactive) | > 100 µM (inactive) | > 100 µM (inactive) | > 100 µM (inactive) | – |
| O=C1OC(c2ccccc2)=N/C1=C/NC(CS)C(=O)O (centres undefined) | > 100 µM (inactive) | > 100 µM (inactive) | > 100 µM (inactive) | > 100 µM (inactive) | > 100 µM (inactive) | > 100 µM (inactive) | – | > 100 µM (inactive) | > 100 µM (inactive) | > 100 µM (inactive) | > 100 µM (inactive) | > 100 µM (inactive) | > 100 µM (inactive) | 55.8 µM (inactive) | > 100 µM (inactive) | > 100 µM (inactive) | > 100 µM (inactive) | > 100 µM (inactive) |
| CC(C)(C)c1cc(C2c3cc4c(cc3OC(O)(CO)C2C(=O)O)OCO4)cc(C(C)(C)C)c1O.CC(C)(C)c1cc(C2c3cc4c(cc3OC3(O)COC(=O)C23)OCO4)cc(C(C)(C)C)c1O (centres undefined) | – | 13.6 µM (inactive) | 27.3 µM (inactive) | 16.6 µM (inactive) | 14.7 µM (inactive) | 13.2 µM (inactive) | – | 14.4 µM (inactive) | 22.5 µM (inactive) | 11.7 µM (inactive) | 9.04 µM (inactive) | – | 3.58 µM (inactive) | – | 12.2 µM (inactive) | 14.7 µM (inactive) | 20.4 µM (inactive) | 9.48 µM (inactive) |
| O=[N+]([O-])c1ccc(/C(Cl)=C/c2ccc(/C=C(\Cl)c3ccc([N+](=O)[O-])cc3[N+](=O)[O-])cc2)c([N+](=O)[O-])c1 | > 100 µM (inactive) | > 100 µM (inactive) | > 100 µM (inactive) | > 100 µM (inactive) | > 100 µM (inactive) | > 100 µM (inactive) | – | > 100 µM (inactive) | > 100 µM (inactive) | > 100 µM (inactive) | > 100 µM (inactive) | > 100 µM (inactive) | – | > 100 µM (inactive) | > 100 µM (inactive) | > 100 µM (inactive) | > 100 µM (inactive) | > 100 µM (inactive) |
| C/C(=N\NC(N)=S)c1cc(C)c(C)cc1C | 62.4 µM (inactive) | 56.8 µM (inactive) | > 100 µM (inactive) | 32.6 µM (inactive) | 43.9 µM (inactive) | 90.8 µM (inactive) | 25.5 µM (inactive) | 44 µM (inactive) | 8.69 µM (inactive) | 30.9 µM (inactive) | > 100 µM (inactive) | 81.7 µM (inactive) | 29.9 µM (inactive) | – | 70.8 µM (inactive) | 37.2 µM (inactive) | 27.7 µM (inactive) | 57 µM (inactive) |
| O=C1C(=O)N(C(=O)c2ccc(Cl)c(Cl)c2)c2ccc(Cl)cc21 | > 100 µM (inactive) | > 100 µM (inactive) | > 100 µM (inactive) | – | 89.7 µM (inactive) | – | > 100 µM (inactive) | 92 µM (inactive) | 74 µM (inactive) | 64.6 µM (inactive) | – | 19.4 µM (inactive) | 38.8 µM (inactive) | – | 44.9 µM (inactive) | > 100 µM (inactive) | > 100 µM (inactive) | > 100 µM (inactive) |
| CCN(CC)CC1CCCCN1CC(=O)N1CC(C)C(=O)Nc2ccccc21 (centres undefined) | > 100 µM (inactive) | > 100 µM (inactive) | > 100 µM (inactive) | > 100 µM (inactive) | > 100 µM (inactive) | > 100 µM (inactive) | – | > 100 µM (inactive) | – | > 100 µM (inactive) | > 100 µM (inactive) | > 100 µM (inactive) | > 100 µM (inactive) | – | > 100 µM (inactive) | > 100 µM (inactive) | > 100 µM (inactive) | > 100 µM (inactive) |
| COC(=O)c1c(C)cc2c(c1O)C1(O)C(=O)c3cc4c(c(O)c3C(=O)C1(OC)C(O)C2)C(=O)C=C(NC1OC(C)C(OC)C(O)C1OC)C4=O (centres undefined) | 0.142 µM (active) | 0.14 µM (active) | 0.298 µM (active) | 0.0538 µM (active) | 0.0986 µM (active) | 0.017 µM (active) | 0.129 µM (active) | 0.0416 µM (active) | 0.241 µM (active) | 0.0687 µM (active) | 0.139 µM (active) | 0.259 µM (active) | 0.0189 µM (active) | 0.0552 µM (active) | 0.0342 µM (active) | 0.119 µM (active) | 0.0532 µM (active) | – |
| O=C(c1ccco1)N(C(=S)N1CCN(c2ccccc2)CC1)C1CCCCC1 | > 100 µM (inactive) | 33.3 µM (inactive) | > 100 µM (inactive) | > 100 µM (inactive) | 76 µM (inactive) | 72.4 µM (inactive) | > 100 µM (inactive) | > 100 µM (inactive) | – | > 100 µM (inactive) | > 100 µM (inactive) | – | > 100 µM (inactive) | > 100 µM (inactive) | 57.3 µM (inactive) | 98.4 µM (inactive) | 45 µM (inactive) | 56.4 µM (inactive) |
| COc1cc(-c2ccccc2)c(OC)cc1CCl | > 100 µM (inactive) | > 100 µM (inactive) | > 100 µM (inactive) | > 100 µM (inactive) | > 100 µM (inactive) | > 100 µM (inactive) | > 100 µM (inactive) | > 100 µM (inactive) | > 100 µM (inactive) | > 100 µM (inactive) | > 100 µM (inactive) | > 100 µM (inactive) | > 100 µM (inactive) | > 100 µM (inactive) | – | > 100 µM (inactive) | > 100 µM (inactive) | > 100 µM (inactive) |
| COc1ccc(/C=C/C(=O)c2cc(C(=O)O)c(OC)cc2OC)cc1OC | > 100 µM (inactive) | – | – | – | > 100 µM (inactive) | > 100 µM (inactive) | > 100 µM (inactive) | > 100 µM (inactive) | > 100 µM (inactive) | > 100 µM (inactive) | > 100 µM (inactive) | > 100 µM (inactive) | > 100 µM (inactive) | > 100 µM (inactive) | > 100 µM (inactive) | > 100 µM (inactive) | > 100 µM (inactive) | > 100 µM (inactive) |
| OC(CC1SCCCS1)c1ccccc1 (centres undefined) | > 100 µM (inactive) | > 100 µM (inactive) | > 100 µM (inactive) | > 100 µM (inactive) | > 100 µM (inactive) | > 100 µM (inactive) | > 100 µM (inactive) | > 100 µM (inactive) | > 100 µM (inactive) | > 100 µM (inactive) | > 100 µM (inactive) | > 100 µM (inactive) | > 100 µM (inactive) | 61.7 µM (inactive) | – | > 100 µM (inactive) | > 100 µM (inactive) | > 100 µM (inactive) |
| O=C(Nc1ccc([N+](=O)[O-])cc1C(=O)O)c1ccc([N+](=O)[O-])cc1 | 37.7 µM (inactive) | 34.3 µM (inactive) | 79.3 µM (inactive) | 32.4 µM (inactive) | 21 µM (inactive) | 40 µM (inactive) | 24.8 µM (inactive) | 46.3 µM (inactive) | > 100 µM (inactive) | 27.4 µM (inactive) | 41.4 µM (inactive) | 71.9 µM (inactive) | 11.4 µM (inactive) | – | 24.2 µM (inactive) | 36.2 µM (inactive) | > 10 µM (inactive) | 51.3 µM (inactive) |
| O=[PH](O)c1cc2ccccc2c2ccccc12 | > 100 µM (inactive) | – | > 100 µM (inactive) | – | > 100 µM (inactive) | – | > 100 µM (inactive) | > 100 µM (inactive) | > 100 µM (inactive) | > 100 µM (inactive) | > 100 µM (inactive) | – | > 100 µM (inactive) | > 100 µM (inactive) | > 100 µM (inactive) | > 100 µM (inactive) | > 100 µM (inactive) | > 100 µM (inactive) |
| C=C1C2CC(OC(C)=O)C3(C)C(c4ccoc4)OC(=O)[C@@H](O)[C@]13OC1C[C@H](OC(C)=O)C(C)(C)[C@H](CC(=O)OC)[C@]12C (some centres undefined) | – | > 100 µM (inactive) | > 100 µM (inactive) | – | > 100 µM (inactive) | – | > 100 µM (inactive) | > 100 µM (inactive) | > 100 µM (inactive) | 93.5 µM (inactive) | > 100 µM (inactive) | > 100 µM (inactive) | > 100 µM (inactive) | – | > 100 µM (inactive) | > 100 µM (inactive) | > 100 µM (inactive) | > 100 µM (inactive) |
| N#C/C(=C\c1ccc(O)c(O)c1)C(N)=O | 35 µM (inactive) | 31.8 µM (inactive) | 71.4 µM (inactive) | 50.6 µM (inactive) | 38 µM (inactive) | 36 µM (inactive) | 33.1 µM (inactive) | 43.9 µM (inactive) | 53 µM (inactive) | 67.1 µM (inactive) | 39.2 µM (inactive) | > 100 µM (inactive) | 5.78 µM (inactive) | 9.2 µM (inactive) | – | 55.6 µM (inactive) | 58.1 µM (inactive) | – |
| C#C[C@]1(O)CC[C@H]2[C@@H]3CCc4cc(O)ccc4[C@H]3CC[C@@]21C [ETHINYL ESTRADIOL] | 44.1 µM (inactive) | > 10 µM (inactive) | 24.4 µM (inactive) | 30.5 µM (inactive) | 21.7 µM (inactive) | 41 µM (inactive) | 13.6 µM (inactive) | 16.1 µM (inactive) | 11.7 µM (inactive) | – | 36.8 µM (inactive) | 20.1 µM (inactive) | 23.1 µM (inactive) | 10.9 µM (inactive) | 25.2 µM (inactive) | – | 31.3 µM (inactive) | 11.1 µM (inactive) |
